Patent US12329158B2, “Large-scale methods of uniformly coating packaging surfaces with a volatile antimicrobial to preserve food freshness” (AGROFRESH INC., priority 2013, dated 2025)
Like-named read-outs stand apart in the source and are kept apart here.

What was measured:
Format in all cases: cell-based
[1] = tested on: Trichophyton mentagrophytes; assay: In vitro contact assay (Example 26); settings: 5 days at 28 C, 100% control
Description: (§1) Half-strength Potato Dextrose Agar (PDA) is amended with a mixture of one of the test compounds in acetone or methanol to a final concentration of 50, 10, 2, 0.4 or 0.08 mg/L. A 3-mL volume of the amended media is added to each well of the microtiter plate. […] The plates are sealed with a clear film and incubated inverted for 5 days at 28° C.

Epidermophyton floccus [2] = assay: In vitro contact assay (Example 26); settings: 5 days at 28 C, 100% control
Description: as §1

Trichophyton rubrum [3] = assay: In vitro contact assay (Example 26); settings: 5 days at 28 C, 100% control
Description: as §1

[4] = tested on: Trichophyton mentagrophytes; assay: In vitro volatile assay (Example 26); settings: 5 days at 28 C, 100% control
Description: (§2) Volatile assay: 6-well (16.5 mL volume per well) microtiter plates are used in an in vitro inhibition assay for Compounds A and 31, and compared to other registered fungicides (5-fluorocytosine, Amphotericin B, aspofungin diacetate, Fluconazole and Itraconazole). A 7.5-mL volume of half strength PDA is added to each well. After drying, a mycelial plug (5 mm diameter) is aseptically obtained from actively growing cultures of Epidermophyton floccus, Trichophyton rubrum, or Trichophyton mentagrophytes and placed at the center of the plate with the mycelial side in contact with the agar. A Whatman #1 filter disk (Cat. No. 1001-325) is placed, in duplicate, on the underside of a polyethylene PCR plate sealing film. […] The headspace around the inoculum is then sealed inside the well by the film with the adhering disk containing the fungicide and incubated inverted for 5 days at 28° C.

Epidermophyton floccus [5] = assay: In vitro volatile assay (Example 26); settings: 5 days at 28 C, 100% control
Description: as §2

Trichophyton rubrum [6] = assay: In vitro volatile assay (Example 26); settings: 5 days at 28 C, 100% control
Description: as §2

Monilinia fructicola = assay: Volatile MIC of Samples 1-4 (Example 19); settings: 50 µl/disk
Botrytis cinerea = assay: Volatile MIC of Samples 1-4 (Example 19); settings: 50 µl/disk; for MIC: Botrytis cinerea, read-out: MIC mg/l Botrytis cinerea
Description: A 3-ml volume of full-strength Potato Dextrose Agar (PDA) is added to each well. […] Cat. No. 1001-0155) are placed on the underside of a polyethylene PCR plate sealing film. […] The acetone is permitted to evaporate for 5 minutes. The headspace around the Botrytis cinerea inoculum is then sealed inside the well by the film with the adhering disk containing the fungicide. Plates are inverted to prevent any possibility of the chemical from flaking from the disk and falling onto the inoculated agar.

Alternaria alternata = assay: Volatile MIC of Samples 1-4 (Example 19); settings: 50 µl/disk; for MIC: Alternaria alternata, read-out: MIC mg/l Alternaria alternata
Penicillium expansum = assay: Volatile MIC of Samples 1-4 (Example 19); settings: 50 µl/disk
Glomerella cingulata = assay: Volatile MIC of Samples 1-4 (Example 19); settings: 50 µl/disk; first test (Table 15)
[7] = Trichophyton mentagrophytes, 120 h, read-out: MIC (mg/L) Trichophyton mentagrophytes
[8] = Epidermophyton, 120 h, read-out: MIC (mg/L) Epidermophyton floccus
[9] = Trichophyton rubrum, 120 h, read-out: MIC (mg/L) Trichophyton rubrum

CCC(C)n1ncn(-c2ccc(N3CCN(c4ccc(OCC5COC(Cn6cncn6)(c6ccc(Cl)cc6Cl)O5)cc4)CC3)cc2)c1=O (stereo not shown) [Itraconazole]
MIC [1, 7]: > 50 mg/L | MIC (Epidermophyton floccus [2]; [8]): > 50 mg/L | MIC (Trichophyton rubrum [3]; [9]): > 50 mg/L | MIC [4, 7]: > 50 mg/L | MIC (Epidermophyton floccus [5]; [8]): > 50 mg/L | MIC (Trichophyton rubrum [6]; [9]): > 50 mg/L

Fc1ccc2c(c1)COB2OCCOB1OCc2cc(F)ccc21 [Sample 1]
MIC (Monilinia fructicola; Monilinia fructicola, repeat test (Table 16), read-out: MIC mg/l Monilinia fructicola): 2.2 mg/L | MIC (Botrytis cinerea; first test (Table 15)): < 0.6 mg/L | MIC (Botrytis cinerea; repeat test (Table 16)): 0.6 mg/L | MIC (Alternaria alternata; first test (Table 15)): 22 mg/L | MIC (Alternaria alternata; repeat test (Table 16)): > 2.2 mg/L | MIC mg/l Penicillium expansum (Penicillium expansum; repeat test (Table 16)): 8.9 mg/L | MIC (Penicillium expansum; Penicillium expansum, first test (Table 15), read-out: MIC mg/l Penicillium expansum): 8.9 mg/L

c1ccc2c(c1)COB2OCCOB1OCc2ccccc21 [Sample 2]
MIC mg/l Monilinia fructicola (Monilinia fructicola; first test (Table 15)): 35.7 mg/L | MIC mg/l Botrytis cinerea (Botrytis cinerea; first test (Table 15)): <0.6 mg/L | MIC mg/l Botrytis cinerea (Botrytis cinerea; repeat test (Table 16)): 2.2 mg/L | MIC mg/l Alternaria alternata (Alternaria alternata; first test (Table 15)): 8.9 mg/L | MIC mg/l Penicillium expansum (Penicillium expansum; first test (Table 15)): 8.9 mg/L | MIC mg/l Penicillium expansum (Penicillium expansum; repeat test (Table 16)): 8.9 mg/L | MIC mg/l Glomerella cingulata (Glomerella cingulata): 142.9 mg/L

CC(C)(OB1OCc2cc(F)ccc21)C(C)(C)OB1OCc2cc(F)ccc21 [Sample 3]
MIC mg/l Monilinia fructicola (Monilinia fructicola; repeat test (Table 16)): 1.1 mg/L | MIC mg/l Botrytis cinerea (Botrytis cinerea; first test (Table 15)): <0.6 mg/L | MIC mg/l Botrytis cinerea (Botrytis cinerea; repeat test (Table 16)): 1.1 mg/L | MIC mg/l Alternaria alternata (Alternaria alternata; first test (Table 15)): 2.2 mg/L | MIC mg/l Alternaria alternata (Alternaria alternata; repeat test (Table 16)): >2.2 mg/L | MIC mg/l Penicillium expansum (Penicillium expansum; first test (Table 15)): 4.5 mg/L | MIC mg/l Penicillium expansum (Penicillium expansum; repeat test (Table 16)): 8.9 mg/L

CC(COB1OCc2cc(F)ccc21)OB1OCc2cc(F)ccc21 (stereo not shown) [Sample 4]
MIC mg/l Monilinia fructicola (Monilinia fructicola; repeat test (Table 16)): 1.1 mg/L | MIC mg/l Botrytis cinerea (Botrytis cinerea; first test (Table 15)): <0.6 mg/L | MIC mg/l Botrytis cinerea (Botrytis cinerea; repeat test (Table 16)): 0.6 mg/L | MIC mg/l Alternaria alternata (Alternaria alternata; first test (Table 15)): 1.1 mg/L | MIC mg/l Alternaria alternata (Alternaria alternata; repeat test (Table 16)): >2.2 mg/L | MIC mg/l Penicillium expansum (Penicillium expansum; first test (Table 15)): 8.9 mg/L | MIC mg/l Penicillium expansum (Penicillium expansum; repeat test (Table 16)): 8.9 mg/L

Caspofungin diacetate
MIC (mg/L) Trichophyton mentagrophytes [1]: 50.0 mg/L | MIC (mg/L) Epidermophyton floccus (Epidermophyton floccus [2]): 2.0 mg/L | MIC (mg/L) Trichophyton rubrum (Trichophyton rubrum [3]): 10.0 mg/L | MIC (mg/L) Trichophyton mentagrophytes [4]: >50 mg/L | MIC (mg/L) Epidermophyton floccus (Epidermophyton floccus [5]): >50 mg/L | MIC (mg/L) Trichophyton rubrum (Trichophyton rubrum [6]): >50 mg/L
